In BindingDB's records for doi:10.1016/S0960-894X(01)80876-3 (1993) one finds IC50 data, which are given here for 16 molecules.

A short description of the test: Ability to inhibit blood platelet aggregation of human platelet-rich plasma induced by TP-receptor agonist U 46619.

`O=C(O)CCC/C=C1\C[C@H]2C[C@@H](O)[C@H](C=NNC(=O)Nc3cccc(Cl)c3)[C@H]2C1` returned an IC50 of 130 nM.
The figure for `O=C(O)CCC/C=C1/C[C@H]2CC[C@H](C=NNC(=O)Nc3ccc(Cl)c(Cl)c3)[C@H]2C1` is 1800 nM; for `O=C(O)CC/C=C1\C[C@H]2C[C@@H](O)[C@H](C=NNC(=O)Nc3ccccc3)[C@H]2C1` it is 26000 nM; for `O=C(O)CCC/C=C1/CC2CCC([CH+][N-]NC(=O)Nc3ccc([N+](=O)[O-])cc3)C2C1` (stereo unspecified) it is 580 nM.
The figure for `O=C(O)CCC/C=C1\C[C@H]2C[C@@H](O)[C@H](C=NNC(=O)Nc3ccc(Cl)c(Cl)c3)[C@H]2C1` is 200 nM; for `O=C(O)CC/C=C1\C[C@H]2C[C@@H](O)[C@H](C=NNC(=O)Nc3cccc(Cl)c3)[C@H]2C1` it is 5200 nM.
For `O=C(O)COC/C=C1/C[C@H]2C[C@@H](O)[C@H](C=NNC(=O)Nc3ccccc3)[C@H]2C1` the value was 1400 nM; for `O=C(O)CCC/C=C1/C[C@H]2C[C@@H](O)[C@H](C=NNC(=O)Nc3ccccc3)[C@H]2C1`, 100 nM.
Regarding `O=C(O)CC/C=C1\CC2CC(O)C([CH+][N-]NC(=O)Nc3ccc([N+](=O)[O-])cc3)C2C1` (stereo unspecified), the IC50 turned out to be 520 nM.
On to `O=C(O)COC/C=C1\C[C@H]2C[C@@H](O)[C@H](C=NNC(=O)Nc3cccc(Cl)c3)[C@H]2C1`, for which the IC50 came to 1600 nM.
The figure for `O=C(O)CCC/C=C1/C[C@H]2CC[C@H](C=NNC(=O)Nc3ccccc3)[C@H]2C1` is 2300 nM; for `O=C(O)CCC/C=C1\C[C@H]2CC[C@H](C=NNC(=O)Nc3ccccc3)[C@H]2C1` it is 12000 nM; for `O=C(O)CCC/C=C1/CC2CC(O)C([CH+][N-]NC(=O)Nc3ccc([N+](=O)[O-])cc3)C2C1` (stereo unspecified) it is 50 nM.
The molecule `O=C(O)CCC/C=C1\C[C@H]2CC[C@H](C=NNC(=O)Nc3cccc(Cl)c3)[C@H]2C1` gave a half-inhibitory concentration (IC50) of 6500 nM.
Molecule `O=C(O)COC/C=C1\C[C@H]2C[C@@H](O)[C@H](C=NNC(=O)Nc3ccccc3)[C@H]2C1` came in with an IC50 of 6000 nM.
In the case of `O=C(O)CCC/C=C1\C[C@H]2CC[C@H](C=NNC(=O)Nc3ccc(Cl)c(Cl)c3)[C@H]2C1`, the IC50 was 9000 nM.
